What was measured:
[1] = biological target: T1, serum albumin (Homo sapiens, UniProt P02768); assay: Binding affinity to human serum albumin at 30 uM by HPLC analysis; format: ADME; details: read-out: PB (converted)
[2] = biological target: T2, serum albumin (Rattus norvegicus, UniProt P02770); assay: Binding affinity to rat serum albumin at 30 uM by HPLC analysis; format: ADME; details: read-out: PB (converted)
[3] = Ratio of binding affinity to rat serum albumin assessed as fraction unbound to binding affinity to human serum albumin assessed as fraction unbound; format: ADME; details: isolated protein
[4] = biological target: T1, serum albumin; assay: Binding affinity to human serum albumin assessed as fraction unbound at 30 uM by HPLC analysis; format: ADME
[5] = biological target: T2, serum albumin; assay: Binding affinity to rat serum albumin assessed as fraction unbound at 30 uM by HPLC analysis; format: ADME
[6] = test system: Pelophylax lessonae; assay: Inhibition of voltage-gated sodium channel in Rana esculenta ventral branch of semitendinosus muscle assessed as tonic block by measuring reduction of maximal peak sodium transient at 300 uM at 10 Hz stimulation frequency by Hille-Campbell vaseline gap voltage-clamp recording; format: tissue-based
[7] = test system: Pelophylax lessonae; assay: Ratio of IC50 for tonic block of voltage-gated sodium channel in Rana esculenta ventral branch of semitendinosus muscle to IC50 for use-dependent block of voltage-gated sodium channel in Rana esculenta ventral branch of semitendinosus muscle at 2 Hz frequency; format: tissue-based
[8] = test system: Pelophylax lessonae; assay: Ratio of IC50 for tonic block of voltage-gated sodium channel in Rana esculenta ventral branch of semitendinosus muscle to IC50 for use-dependent block of voltage-gated sodium channel in Rana esculenta ventral branch of semitendinosus muscle at 10 Hz frequency; format: tissue-based
[9] = Inhibition of voltage-gated sodium channel in Rana esculenta ventral branch of semitendinosus muscle assessed as use-dependent block at 2 Hz stimulation frequency by Hille-Campbell vaseline gap voltage-clamp recording; format: tissue-based, Pelophylax lessonae
[10] = test system: Pelophylax lessonae; assay: Steady state inactivation of voltage-gated sodium channel in Rana esculenta ventral branch of semitendinosus muscle at 100 uM assessed as change in potential at which 50% of sodium channel were inactivated measured at 1000 ms prepulse by Hille-Campbell vaseline gap voltage-clamp recording; format: tissue-based
[11] = Inhibition of voltage-gated sodium channel in Rana esculenta ventral branch of semitendinosus muscle assessed as tonic block by measuring reduction of maximal peak sodium transient at holding potential -100 mV by Hille-Campbell vaseline gap voltage-clamp recording; format: tissue-based, Pelophylax lessonae
[12] = Inhibition of voltage-gated sodium channel in Rana esculenta ventral branch of semitendinosus muscle at -70 mV of holding potential by Hille-Campbell vaseline gap voltage-clamp recording; format: tissue-based, Pelophylax lessonae
[13] = Inhibition of voltage-gated sodium channel in Rana esculenta ventral branch of semitendinosus muscle at -140 mV of holding potential by Hille-Campbell vaseline gap voltage-clamp recording; format: tissue-based, Pelophylax lessonae
[14] = Inhibition of voltage-gated sodium channel in Rana esculenta ventral branch of semitendinosus muscle assessed as use-dependent block at 10 Hz frequency by Hille-Campbell vaseline gap voltage-clamp recording; format: tissue-based, Pelophylax lessonae
[15] = Inhibition of voltage-gated sodium channel in Rana esculenta ventral branch of semitendinosus muscle assessed as tonic block at 10 Hz stimulation frequency by measuring reduction of maximal peak sodium transient by Hille-Campbell vaseline gap voltage-clamp recording; format: tissue-based, Pelophylax lessonae
[16] = test system: Pelophylax lessonae; assay: Inhibition of voltage-gated sodium channel in Rana esculenta ventral branch of semitendinosus muscle assessed as tonic block by measuring reduction of maximal peak sodium transient at 500 uM at 10 Hz stimulation frequency by Hille-Campbell vaseline gap voltage-clamp recording; format: tissue-based
[17] = biological target: T1, serum albumin; assay: Binding affinity to human serum albumin; format: ADME; details: read-out: PB (converted)

T2 sequence (P02770 whole entry): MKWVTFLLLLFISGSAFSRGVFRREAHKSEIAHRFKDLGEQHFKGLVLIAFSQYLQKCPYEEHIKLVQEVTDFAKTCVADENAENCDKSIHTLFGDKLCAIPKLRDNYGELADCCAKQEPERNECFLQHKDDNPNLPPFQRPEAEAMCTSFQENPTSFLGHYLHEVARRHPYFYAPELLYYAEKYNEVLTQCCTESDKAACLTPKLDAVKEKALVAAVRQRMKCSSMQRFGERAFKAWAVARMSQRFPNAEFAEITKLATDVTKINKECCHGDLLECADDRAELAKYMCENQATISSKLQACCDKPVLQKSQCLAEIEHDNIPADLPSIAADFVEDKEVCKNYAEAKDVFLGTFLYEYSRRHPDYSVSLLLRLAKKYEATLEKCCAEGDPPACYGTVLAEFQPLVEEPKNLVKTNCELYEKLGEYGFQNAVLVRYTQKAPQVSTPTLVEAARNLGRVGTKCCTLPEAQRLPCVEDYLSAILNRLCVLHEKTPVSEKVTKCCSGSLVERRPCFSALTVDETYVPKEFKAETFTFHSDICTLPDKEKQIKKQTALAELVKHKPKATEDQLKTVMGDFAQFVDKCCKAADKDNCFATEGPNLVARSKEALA
T1 sequence (P02768 whole entry): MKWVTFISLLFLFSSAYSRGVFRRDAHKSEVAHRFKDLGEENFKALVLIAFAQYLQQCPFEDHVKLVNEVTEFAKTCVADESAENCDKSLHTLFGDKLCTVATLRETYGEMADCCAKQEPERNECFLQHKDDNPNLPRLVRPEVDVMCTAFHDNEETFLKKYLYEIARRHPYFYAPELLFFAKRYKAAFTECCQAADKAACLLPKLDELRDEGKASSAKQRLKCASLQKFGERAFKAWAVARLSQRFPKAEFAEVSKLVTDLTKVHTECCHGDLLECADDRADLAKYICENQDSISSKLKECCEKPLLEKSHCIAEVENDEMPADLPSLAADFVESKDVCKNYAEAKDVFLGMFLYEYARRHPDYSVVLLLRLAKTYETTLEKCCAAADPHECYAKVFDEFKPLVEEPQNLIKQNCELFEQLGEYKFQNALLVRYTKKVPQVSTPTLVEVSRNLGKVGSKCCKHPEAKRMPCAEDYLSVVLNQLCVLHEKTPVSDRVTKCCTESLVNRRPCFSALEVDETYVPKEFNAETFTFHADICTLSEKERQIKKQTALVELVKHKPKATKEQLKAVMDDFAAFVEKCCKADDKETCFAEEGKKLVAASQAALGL

SMILES | fraction unbound at 30 µM [1] | fraction unbound at 30 µM [2] | Ratio [3] | fraction unbound at 30 µM [4] | fraction unbound at 30 µM [5] | inhibition [6] [%] | Ratio IC50 [7] | Ratio IC50 [8] | IC50 [9] [µM] | Activity [10] [mV] | IC50 [11] [µM] | IC50 [12] [µM] | IC50 [13] [µM] | IC50 [14] [µM] | pIC50 [15] | inhibition [16] [%] | fraction unbound [17]
Cc1cccc(C)c1NC(=O)C1CCN(Cc2ccccc2)C1 (centres undefined) | 0.029 | 0.064 | 2.27 | 0.0284 | 0.0644 |  |  |  |  |  |  |  |  |  |  |  | 
Cc1cccc(C)c1NC(=O)CC(C)N (racemic) |  |  |  |  |  | 35.6 | 5.2 | 8.6 | 81.2 | 4.8 | 420 | 54 | 603 | 48.8 | 4.31 |  | 
Cc1cccc(C)c1NC(=O)CC(C)NCc1ccccc1 (racemic) | 0.047 | 0.121 |  | 0.0474 | 0.122 |  |  |  |  |  |  |  |  |  |  |  | 
Cc1cccc(C)c1NC(=O)CC(C)NCc1cccc2ccccc12 (racemic) | 0.033 | 0.04 |  | 0.033 | 0.04 |  |  |  |  |  |  |  |  |  |  |  | 
Cc1cccc(C)c1NC(=O)C(C)N (racemic) [TOCAINIDE] | 0.746 | 0.64 | 0.86 | 0.746 | 0.64 |  | 1.5 | 2.1 | 350 |  | 523 | 254 | 985 | 248 |  | 42.6 | 
O=C1CN=C(c2ccccc2Cl)c2cc([N+](=O)[O-])ccc2N1 [CLONAZEPAM] | 0.143 | 0.117 |  |  |  |  |  |  |  |  |  |  |  |  |  |  | 0.14

Reference: ChEMBL document CHEMBL3232895, “N-aryl-2,6-dimethylbenzamides, a new generation of tocainide analogues as blockers of skeletal muscle voltage-gated sodium channels” (J Med Chem, 2014)
